This is an account of results in a melting point compilation (Tetko et al.; mined from patent text by program, amines drawn as free bases though some values may be those of a salt).

`O=C(Cc1ccccc1)Nc1ccc2oc3c(c2c1)CCCC3`: the melting point (usually the temperature, or range, at which the solid turns liquid) lay within 180 to 181 °C.

Take `Cn1c(COc2ccc(Cn3cc(CCC(=O)O)c(-c4ccccc4)n3)cc2)nc2ccccc21`: the melting point fell in the range of 225 to 226 °C.

Regarding `CC(C(=O)O)c1ccc(Nc2ccc(Cl)cc2)cc1` (stereo not given), the melting point lay in the range of 106 to 109 °C.

`COC(=O)c1ccc(N2CCC(N(C)Cc3ccccc3)CC2)cc1`: the melting point was in the range of 103 to 104 °C.

With `CC=Cc1nc2ccc(C)cc2c(=O)[nH]1`, the melting point was in the range of 232 to 233 °C.

As for `COc1ccccc1OCCOS(N)(=O)=O`, the melting point is 81.5 to 83 °C.

For `Clc1ccccc1C1=NCc2nnc(Cc3ccccc3)n2-c2sc3c(c21)CCNC3`, the melting point stood at 192 °C.

For `COc1cc(C)c(C(=O)c2c(OC)cccc2C(F)(F)F)c(OC)c1OC`, the melting point lay in the range of 69 to 70 °C.

`Cc1nc(Cl)c(SC(F)F)n1-c1c(Cl)cc(C(F)(F)F)cc1Cl` showed a melting point of 118 °C.

The molecule `Nc1cc(Cl)nc(S(=O)Cc2ccc3ccccc3c2)n1` (stereo not given) returned a melting point of 222 to 223 °C.

Molecule `CCC(=O)NC1(c2ccc(C(C)C)cc2OC(=O)CC)C(=O)c2ccccc2C1=O` had a melting point of 173 to 175 °C.

Take `Cc1cccc(-c2n[nH]cc2-c2ccc(F)c(-c3cnc(C(C)(C)O)s3)c2)n1`: the melting point was 208 to 210 °C.

`O=CN1CCN(O)CC1`: the melting point lay within 118 to 124 °C.

`CN(C)CCNC(=O)c1cc(Oc2ccc3c(C(=O)Nc4cccc(C(F)(F)F)c4)cccc3c2)ccn1`: the melting point was 80 to 82 °C.

`COc1ccc(NS(=O)(=O)c2ccc(N3CCNC3=O)cc2)cc1OC` came in with a melting point of 215 to 216 °C.

For the molecule `O=C(CC1COC1)N[C@H]1CC[C@H](CCN2CCN(c3nccc4c3OCC4)CC2)CC1`, the melting point came to 175 °C.

Regarding `O=C(CCl)Nc1cccc([N+](=O)[O-])c1`, the melting point was 110 to 112 °C.

In turn, `CCOC(=O)/C=C/c1cc(-c2ccc(C(F)(F)F)cc2)oc1CC` had a melting point of 82 to 83 °C.

On to `COc1cc(N)c(Cl)cc1C(=O)NCC1CCN(CCCOCc2ccccc2)CC1`, for which the melting point lay in the range of 82 to 83 °C.

The molecule `CCOC(=O)c1cc(O)cc2cc(-c3ccc(O)cc3)oc12` had a melting point of 221 to 223 °C.

On to `O=S1(=O)Cc2ccc(F)cc2C(c2ccc(F)cc2)=NN1`, for which the melting point is 196 to 200 °C.

Take `COc1ccccc1N1CCN(CC(O)CCl)CC1` (stereo not given): the melting point was in the range of 96 to 98 °C.

`COC(=O)c1c(O)c(-c2ccccc2)nn1C` gave a melting point of 88 to 90 °C.

For the molecule `O=C(O)c1ccc(NC(=O)[C@H](CO)NS(=O)(=O)c2ccc(Cl)cc2)cc1`, the melting point lay within 231 to 234 °C.

Take `Clc1ccc(-c2n[nH]c3cc4ccccc4cc23)cc1`: the melting point was 192 °C.

For `CCCc1nc2ccnn2c(O)c1Cc1ccc(-c2ccccc2-c2nnn[nH]2)cc1`, the melting point is above 320 °C.

`Cc1nc2c(N)nc3cc(OCCC4CCN(C(=O)NC5CCCCC5)CC4)ccc3c2n1CC(C)C`: the melting point fell in the range of 214 to 216 °C.

As for `O=C1NC(=O)C2(N1)c1ccccc1-c1ncccc12` (stereo not given), the melting point lay within 311 to 312 °C.

As to `O=C(CC1=CC(OC2CCCCO2)CC1=O)Oc1ccc2ccccc2c1` (stereo not given), the melting point was 75 °C.

For the molecule `CCc1oc2ccc(Cl)cc2c1C(=O)c1ccc(Cl)c(S(N)(=O)=O)c1`, the melting point lay in the range of 130 to 133 °C.

Consider `CCc1ccc2c(c1)c(-c1ccccc1Cl)c(NC(=O)Nc1c(C)cccc1C(C)C)c(=O)n2C`, for which the melting point was in the range of 198 to 199 °C.

For the molecule `CCOC(=O)CCC(C)C1CC=C2C3=C(CCC21C)C1(C)CCC(O)C(C)(C)C1CC3` (stereo not given), the melting point lay within 122 to 124 °C.

As to `O=C(CCc1cccnc1)NCCCC1CCN(C(c2ccccc2)c2ccccc2)CC1`, the melting point fell in the range of 109 to 110 °C.

With `CC(C)c1cccc(C(C)C)c1-c1cc(OCc2ccccc2)ccc1CC(NC(c1ccccc1)c1ccccc1)C(N)=O` (stereo not given), the melting point fell in the range of 148 to 150 °C.

`CC(C)Nc1nc(Cl)nc(Cl)n1` displayed a melting point of 46 to 47 °C.
